Experimental data taken from the METLIN SMRT retention time set (Domingo-Almenara et al. 2019).
Each block holds one molecule with its values, some of them ahead of it.

Assay: gradient 5% acetonitrile 3 min, to 50% in 2 min, to 85% in 15 min, held 3 min, 100 µL/min
Details: column: Zorbax Extend-C18 2.1 x 50 mm; eluents: water / acetonitrile, 0.1% formic acid
Summary of the method: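 Retention times of pure standards were taken from adduct peaks that were selected by computer and manually inspected. Over 3 months, mixtures of ~100 molecules were run by HPLC–quadrupole time-of-flight mass spectrometry in positive and negative ionization mode. The Zorbax Extend-C18 column (2.1 × 50 mm, 1.8 μm) ran at 100 μL/min in water and acetonitrile, each containing 0.1% formic acid, with 40 μL dead volume and 900 μL dwell volume.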

SMILES: CCN(CC)CCNC(=O)C1CCCN(c2ccc(-c3ccc(C)cc3)nn2)C1 (centres undefined)
RP-LC retention time: 590 s

SMILES: O=C(NCc1ccc2c(c1)OCO2)C1CCCN(C(=O)C2Sc3ccccc3NC2=O)C1 (centres undefined)
RP-LC retention time: 703 s

SMILES: CCOc1ccccc1NC(=O)CSc1nnc(Cc2ccccc2)n1-n1cccc1
RP-LC retention time: 948 s

SMILES: CCCn1cc(CCNC(=O)Nc2cccc(C)c2C)c2cccnc21
RP-LC retention time: 785 s

SMILES: COc1ccc(Cl)cc1N1CC(c2nc(-c3cc(OC)c(OC)c(OC)c3)no2)CC1=O (centres undefined)
RP-LC retention time: 905 s

SMILES: O=C(Nc1ccc(Br)cc1F)NC1CCN(c2ccc(F)cc2)C1=O (centres undefined)
RP-LC retention time: 937 s

SMILES: CN(C)c1cccc(F)c1C(=O)NC(=O)Nc1ccc(Cl)cc1
RP-LC retention time: 990 s

SMILES: CC(=O)c1cccc(NC(=O)c2nc(N(C)C)c3c(C)cc(C)nc3n2)c1
RP-LC retention time: 564 s

SMILES: Cc1ccc(CNc2c(-c3ccc(C)c(C)c3)nc3ncccn23)cc1
RP-LC retention time: 834 s

SMILES: CCOc1ccc(NS(=O)(=O)c2cc(-c3cc(C(F)(F)F)on3)sc2C)cc1
RP-LC retention time: 1120 s

SMILES: CC(C(=O)NCc1nc2ccccc2[nH]1)n1nc(-c2cccs2)ccc1=O (centres undefined)
RP-LC retention time: 576 s

SMILES: O=C(Cn1cnc2nc(N3CCOCC3)ncc2c1=O)Nc1ccc2c(c1)OCCO2
RP-LC retention time: 658 s

SMILES: COc1cc(C2c3c(-c4ccc(C)cc4)n[nH]c3C(=O)N2C)ccc1O (centres undefined)
RP-LC retention time: 692 s

SMILES: Cc1ncoc1C(=O)N1CC(Oc2ccc(-c3nc(-c4ccccc4)no3)cc2)C1
RP-LC retention time: 1040 s

SMILES: Cc1cc(N2CCCCC2)n2nc(CN3CCN(C(C)C)CC3)nc2n1
RP-LC retention time: 574 s

SMILES: CCc1ccccc1NC(=O)c1c(O)c2cccnc2n(-c2ccccc2)c1=O
RP-LC retention time: 1290 s

SMILES: Cc1nc(CCNC(=O)Cc2cccs2)no1
RP-LC retention time: 646 s

SMILES: CCOc1ccc(-n2ccn3cc(-c4cccc(Cl)c4)nc3c2=O)cc1
RP-LC retention time: 947 s

SMILES: O=C(NC1CCCCC1)c1ccc2c(c1)N(C(=O)c1ccc(F)cc1)CC2
RP-LC retention time: 944 s

SMILES: Cc1oc(C)c(S(=O)(=O)NC2CC2)c1C(=O)NCc1ccc2c(c1)OCO2
RP-LC retention time: 830 s

SMILES: O=S(=O)(c1ccccc1Cl)N1CCc2nc(-c3ccccc3)ncc2C1
RP-LC retention time: 1080 s

SMILES: O=C(Cn1cccc1-c1nc(-c2ccc3c(c2)OCO3)no1)N1CCCc2ccccc21
RP-LC retention time: 1120 s

SMILES: O=C(Nc1ccc(F)cc1)C(=O)c1c[nH]c2ccccc12
RP-LC retention time: 918 s

SMILES: Cc1ccc(Cn2nc3c(S(=O)(=O)N4CCCC4)cccn3c2=O)cc1
RP-LC retention time: 880 s

SMILES: O=C(CN1C(=O)CCCc2cc(S(=O)(=O)N3CCCC3)ccc21)Nc1ccc(Cl)cc1
RP-LC retention time: 892 s

SMILES: COc1ccc(Cc2nc3ccccc3n2CC(N)=O)cc1OC
RP-LC retention time: 566 s

SMILES: CCc1nc2cc(N3CCC(C(=O)NCc4cc(F)cc(F)c4)CC3)cnc2nc1CC
RP-LC retention time: 838 s

SMILES: COC(=O)c1c(C)[nH]c(C(=O)N2CCC(CC(=O)NCc3cccc(Cl)c3)CC2)c1C
RP-LC retention time: 770 s

SMILES: Cc1ccccc1-c1nnc(CSc2nnc(NC(=O)c3ccccc3Br)s2)o1
RP-LC retention time: 943 s

SMILES: Cc1nc(OCC(=O)Nc2ccc(Cl)c(C(F)(F)F)c2)c2ccccc2n1
RP-LC retention time: 892 s

SMILES: Cn1cc(-c2cc3n(n2)CCC(=O)N3CC(=O)NCCCN2CCCC2=O)c2ccccc21
RP-LC retention time: 657 s

SMILES: Cc1c(NC(=O)c2ccccc2-c2ccccc2C(=O)O)c(=O)n(-c2ccccc2)n1C
RP-LC retention time: 681 s

SMILES: CCCN(CC1CCOC1)S(=O)(=O)c1ccccc1C (centres undefined)
RP-LC retention time: 904 s

SMILES: CCCn1cc(C(=O)Nc2cc(OC)cc(OC)c2)c(=O)c2ccc(C)nc21
RP-LC retention time: 1170 s

SMILES: O=C(NCCCc1ccccc1)C1CCN(c2ncnc3c2oc2ccccc23)CC1
RP-LC retention time: 976 s

SMILES: O=C(NCc1ccc(F)cc1F)C1CCCN(c2cn[nH]c(=O)c2)C1 (centres undefined)
RP-LC retention time: 660 s

SMILES: Cc1ccc(Cl)cc1NC(=O)Cn1cnc2nc3c(cc2c1=O)CCCC3
RP-LC retention time: 783 s

SMILES: CCn1cc(-c2nc(-c3ccc(OC(C)C)cc3)no2)c(=O)c2cc(F)c(N3CCOCC3)cc21
RP-LC retention time: 1050 s

SMILES: COc1ccc(-c2nnc(COc3ccc(NC(=O)c4cnccn4)cc3)o2)cc1
RP-LC retention time: 800 s

SMILES: CCn1nc(C)n2cc(S(=O)(=O)N3CCC(Cc4ccccc4)CC3)cc2c1=O
RP-LC retention time: 1040 s

SMILES: COc1ccc(CNC(=O)C2=C3CCCN3c3ccc(F)cc3S2(=O)=O)c(OC)c1
RP-LC retention time: 870 s

Other lines, results leading:

RP-LC retention time: 722 s
SMILES: COc1ccc(C)cc1NC(=O)N1CCCC(Cn2c(C3CC3)nc3cccnc32)C1 (centres undefined)

RP-LC retention time: 894 s
SMILES: Cn1ncc2c(N3CCCCC3)nc(C(=O)N3CCN(c4ccc(F)cc4)CC3)nc21

RP-LC retention time: 796 s
SMILES: CN1C(=O)CO[C@@H](C(=O)N2CCN(c3ccccc3)CC2)[C@@H]1c1ccccc1

RP-LC retention time: 1110 s
SMILES: COc1ccc(NC(=O)c2cc(C)n3nc(-c4ccco4)cc3n2)cc1Cl

RP-LC retention time: 617 s
SMILES: COc1ccc(Cl)cc1N1CC(c2nc3ccccc3n2CCN2CCOCC2)CC1=O (centres undefined)

RP-LC retention time: 953 s
SMILES: COC(=O)c1ccc2c(=O)n(Cc3ccccc3)c(N3CCOCC3)nc2c1

RP-LC retention time: 956 s
SMILES: COc1ccc(Cl)cc1NC(=O)CN1C(=O)CCSc2ccccc21

RP-LC retention time: 832 s
SMILES: CCn1c(=O)c(N2CCCC(C(=O)N3CCN(C(=O)c4ccco4)CC3)C2)nc2ccccc21 (centres undefined)

RP-LC retention time: 851 s
SMILES: COc1ccccc1NC(=O)Cn1nc2cc(C)nc(-c3ccc(F)cc3)n2c1=O

RP-LC retention time: 780 s
SMILES: O=C(Nc1nc2c(s1)CN(S(=O)(=O)/C=C/c1ccccc1)CC2)c1cnccn1

RP-LC retention time: 1110 s
SMILES: Cc1cccc(N2CCN(Cc3nc(-c4ccc(N5CCC(C)CC5)nc4)no3)CC2)c1

RP-LC retention time: 730 s
SMILES: COc1ccc(N2CCN(C(=O)CCc3nnc4c5cc(-c6ccccc6)nn5ccn34)CC2)cc1

RP-LC retention time: 852 s
SMILES: CC1CCN(S(=O)(=O)c2ccc3nc(N4CCN(C(=O)c5ccco5)CC4)ccc3c2)CC1

RP-LC retention time: 858 s
SMILES: COc1ccccc1N1CCN(C(=O)c2cn3cc(Cl)ccc3n2)CC1

RP-LC retention time: 995 s
SMILES: COc1ccc(N2C=C(C#N)S(=O)(=O)c3ccc(Cl)cc32)c(OC)c1

RP-LC retention time: 838 s
SMILES: O=C(c1ccc2c(c1)OCO2)N1CCC2(CC1)NC(=O)N(Cc1ccccc1Cl)C2=O

RP-LC retention time: 619 s
SMILES: Cn1cc(-c2cc3n(n2)CCC(=O)N3CCCC(=O)N2CCN(c3ccccn3)CC2)c2ccccc21

RP-LC retention time: 576 s
SMILES: O=C(NCCN1CCc2ccccc2C1)c1cccc(N2CCNC(c3ccccc3)C2)n1 (centres undefined)

RP-LC retention time: 933 s
SMILES: Cc1c(-c2ccnc(N3CCCC3)n2)cnc2nc(-c3ccccc3)nn12

RP-LC retention time: 794 s
SMILES: O=C(NCc1ccccc1F)c1cc2n(n1)CCCC2

RP-LC retention time: 838 s
SMILES: CCn1c(=O)c(N2CCC(NC(=O)Nc3ccc4c(c3)OCCO4)CC2)nc2ccccc21

RP-LC retention time: 589 s
SMILES: Cc1ccccc1NC(=O)N1CCN(Cc2cn(C)c3ccccc23)CC1

RP-LC retention time: 607 s
SMILES: CCN1CCN(C(=O)c2ccc(-c3ccc4c(c3)CCN4C(C)=O)cc2)CC1
